Each structure is given as a SMILES string.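 All cell lines were grown in 96-well plates and treated with compound for 48 hours. TGI: concentration producing complete growth inhibition.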

Some test systems named below: MDA-N; SK-MEL-2 melanoma; DU-145 prostate; HOP-92 NSCLC; HOP-62 NSCLC; A549 NSCLC; HT29 colon; UACC-62 melanoma; MDA-MB-435; SF-295 CNS; MCF7 breast; LOX IMVI melanoma; SNB-75 CNS; K-562 leukemia; T-47D breast; SK-OV-3 ovarian; NCI-H460 lung; NCI-H23 lung; BT-549 breast; RPMI-8226 leukemia.
Experiment in all cases: inhibition of tumour cell growth, NCI panel, 48 h

For the compound `CC(=O)OCC1OC(n2c(C)c(C(C)=O)c(-c3cccc4ccccc34)c(C#N)c2=S)C(OC(C)=O)C(OC(C)=O)C1OC(C)=O` (configuration not stated), the TGI with MDA-N, in the experiment on SK-MEL-2 melanoma, in the experiment with DU-145 prostate, with HOP-92 NSCLC, in the experiment on HOP-62 NSCLC and in the experiment with A549 NSCLC was above 100 µM each time. The TGI with HT29 colon, in the experiment with UACC-62 melanoma, in the experiment on MDA-MB-435, in the experiment with SF-295 CNS, in the experiment with MCF7 breast and in the experiment on LOX IMVI melanoma was above 100 µM in each case. Besides, the TGI in the experiment on SNB-75 CNS, in the experiment with K-562 leukemia, in the experiment on T-47D breast, in the experiment on SK-OV-3 ovarian, in the experiment with NCI-H460 lung and in the experiment with NCI-H23 lung was above 100 µM each time.

With `COc1cc(C2(O)c3ccccc3C3=NCCN32)cc(OC)c1OC` (configuration not stated), the TGI in the experiment on MDA-N, with SK-MEL-2 melanoma, with DU-145 prostate, with BT-549 breast, in the experiment on HOP-92 NSCLC and in the experiment on HOP-62 NSCLC was above 100 µM in each case. In addition, the TGI with A549 NSCLC, in the experiment on HT29 colon, in the experiment with UACC-62 melanoma, in the experiment with MDA-MB-435, in the experiment with SF-295 CNS and with LOX IMVI melanoma was above 100 µM in each case. Besides, the TGI with SNB-75 CNS, in the experiment on RPMI-8226 leukemia, with K-562 leukemia, in the experiment with T-47D breast, with SK-OV-3 ovarian and in the experiment with NCI-H460 lung was above 100 µM each time. The TGI with NCI-H23 lung is above 100 µM.

For the compound `O=C(NCCN1CCCC1)c1cn2c(ccc3sc4ccccc4c(=O)c32)n1`, the TGI with MDA-N stood at 33.1 µM; in the experiment with SK-MEL-2 melanoma, 36 µM; in the experiment with DU-145 prostate, 26.3 µM; with BT-549 breast, 35.6 µM; in the experiment with HOP-92 NSCLC it was 30.1 µM; in the experiment with HOP-62 NSCLC it was 25.8 µM. Also, the TGI with A549 NSCLC is 24.5 µM; with HT29 colon, 7.67 µM; in the experiment with UACC-62 melanoma, 31.3 µM; with MDA-MB-435, above 56.6 µM; in the experiment on SF-295 CNS, 27.1 µM; in the experiment on LOX IMVI melanoma, 3.4 µM. Also, the TGI in the experiment on SNB-75 CNS amounted to 34.1 µM; with RPMI-8226 leukemia it was 5.7 µM; in the experiment with T-47D breast it was 38.1 µM; in the experiment on SK-OV-3 ovarian, 30 µM; with NCI-H460 lung, 18.6 µM; with NCI-H23 lung it was 32.4 µM.

With `C/C(=N/NC(=S)NCCc1ccccn1)c1cnccn1`, the TGI in the experiment with MDA-N, in the experiment with SK-MEL-2 melanoma, in the experiment on DU-145 prostate, in the experiment on BT-549 breast, in the experiment on HOP-92 NSCLC and with HOP-62 NSCLC was above 100 µM in each case. In addition, the TGI in the experiment on A549 NSCLC is above 100 µM; with HT29 colon, above 100 µM; in the experiment on UACC-62 melanoma it was 64.1 µM; in the experiment with MDA-MB-435 it was above 100 µM; in the experiment on SF-295 CNS it was 63.8 µM; in the experiment on LOX IMVI melanoma, 40.1 µM. Moreover, the TGI in the experiment with SNB-75 CNS was above 100 µM; in the experiment with RPMI-8226 leukemia it was 80 µM; in the experiment on T-47D breast, above 100 µM; in the experiment on SK-OV-3 ovarian it was 70.5 µM; in the experiment with NCI-H460 lung it was above 100 µM; in the experiment on NCI-H23 lung it was above 100 µM.

Regarding `CO/N=C(/C(=O)OC)c1ccccc1COc1cccc(C(F)(F)F)c1`, the TGI in the experiment on MDA-N, in the experiment on SK-MEL-2 melanoma, in the experiment on DU-145 prostate, with HOP-92 NSCLC, with HOP-62 NSCLC and with A549 NSCLC was above 100 µM in each case. The TGI in the experiment on HT29 colon is above 100 µM; in the experiment on UACC-62 melanoma, above 100 µM; in the experiment with MDA-MB-435 it was above 100 µM; with SF-295 CNS it was above 100 µM; in the experiment on MCF7 breast it was 85.1 µM; in the experiment with LOX IMVI melanoma, above 100 µM. The TGI is above 100 µM with SNB-75 CNS; 25.4 µM in the experiment with RPMI-8226 leukemia; above 100 µM in the experiment on K-562 leukemia; 64.7 µM in the experiment on T-47D breast; above 100 µM with SK-OV-3 ovarian; above 100 µM in the experiment with NCI-H460 lung. In the experiment with NCI-H23 lung, this compound returned a TGI above 100 µM.

With `Clc1ccc(-c2nnc(C34CC5CC(CC(C5)C3)C4)o2)cc1`, the TGI in the experiment on MDA-N, in the experiment with SK-MEL-2 melanoma, in the experiment on DU-145 prostate, in the experiment with HOP-92 NSCLC, in the experiment with HOP-62 NSCLC and in the experiment with A549 NSCLC was above 100 µM in each case. Further, the TGI in the experiment with HT29 colon, in the experiment on UACC-62 melanoma, in the experiment with MDA-MB-435, in the experiment with SF-295 CNS, in the experiment on LOX IMVI melanoma and in the experiment on SNB-75 CNS was above 100 µM each time. Besides, the TGI in the experiment with RPMI-8226 leukemia, in the experiment with K-562 leukemia, in the experiment with T-47D breast, in the experiment with SK-OV-3 ovarian, with NCI-H460 lung and with NCI-H23 lung was above 100 µM in each case.

As for `[C-]#[N+]C1(C(=O)OCC)CC1`, the TGI in the experiment with MDA-N, with DU-145 prostate, in the experiment with HOP-92 NSCLC, with HOP-62 NSCLC, with A549 NSCLC and in the experiment on HT29 colon was above 100 µM throughout. Besides, the TGI with UACC-62 melanoma, with MDA-MB-435, in the experiment with SF-295 CNS, with MCF7 breast, in the experiment on LOX IMVI melanoma and in the experiment on SNB-75 CNS was above 100 µM throughout. Also, the TGI in the experiment with RPMI-8226 leukemia, in the experiment with K-562 leukemia, with T-47D breast, in the experiment on NCI-H460 lung and in the experiment with NCI-H23 lung was above 100 µM each time.

Values taken from PubChem BioAssay (NCI).
